# Assay results from patent US7973069B2 (PTC Therapeutics, Inc., priority 2004, dated 2011).
row,melting point,SMILES
1,154 to 156 °C,"C[C@@H](OC(=O)Nc1ccc(-c2c(C#N)c3ccc(Oc4ncccn4)cc3n2C2CC2)cc1)C1CC1 [Compound 2217, (R)-{4-[3-cyano-1-cyclopropyl-6-(pyrimidin-2-yloxy)-1H-indol-2-yl]-phenyl}-carbamic acid 1-cyclopropylethyl ester]"
2,223 to 224 °C,CC(C)NS(=O)(=O)Nc1ccc(-c2c(C#N)c3ccc(Oc4ncccn4)cc3n2C2CCC2)cc1 [Compound 2263]
3,165 to 165.5 °C,"CC(C)OC(=O)Nc1ccc(-c2c(C#N)c3ccc(Oc4ncccn4)cc3n2C2CCC2)cc1Cl [Compound 2339, {2-chloro-4-[3-cyano-1-cyclobutyl-6-(pyrimidin-2-yloxy)-1H-indol-2-yl]-phenyl}-carbamic acid isopropyl ester]"
4,118 to 120 °C,"C[C@@H](OC(=O)Nc1ccc(-c2c(C#N)c3ccc(-c4ccccn4)cc3n2C2CCC2)cc1)C1CC1 [Compound 2417, [4-(3-cyano-1-cyclobutyl-6-pyridin-2-yl-1H-indol-2-yl)-phenyl]-carbamic acid 1-cyclopropyl-ethyl ester]"
5,212 to 214 °C,"C[C@@H](OC(=O)Nc1ccc(-c2c(C#N)c3ccc(-c4ncccn4)cc3n2C2CCC2)cc1)C1CC1 [Compound 2419, [4-(3-cyano-1-cyclobutyl-6-pyrimidin-2-yl-1H-indol-2-yl)-phenyl]-carbamic acid 1-cyclopropyl-ethyl ester]"
6,215 to 217 °C,"CC(C)Nc1ccc(-c2c(C#N)c3ccc(Oc4ncccn4)cc3n2C2CC2)cc1 [Compound 2434, 1-cyclopropyl-2-(4-isopropylamino-phenyl)-6-(pyrimidin-2-yloxy)-1H-indole-3-carbonitrile]"
